Data set [1] is described as follows: Stability of the reformulated radioligand solution at 25° C. Format: physicochemical. To be noted: after reformulation, radioHPLC. As to the method: The stability of the reformulated [^64Cu]Cu-RPS-085 solution was determined in triplicate at 25° C. Three 1 mL samples at a radioactivity concentration of approximately 10 MBq/mL and radiochemical purity >99% were transferred to Eppendorf tubes (VWR, USA). The samples were incubated for 24 h at 25° C. in an Eppendorf ThermoMixer® C (VWR, USA). Radiochemical purity was determined by analytical reverse phase (radio)HPLC and expressed as a fraction of the purity of the sample prior to incubation. After reformulation, [^64Cu]Cu-RPS-085 was stable at room temperature for more than 24 h.

The nature of data set [2]: Plasma stability. It counts as in vitro ADME, human. To be noted: 37° C. As to the method: The plasma stability of [^67Cu]Cu-RPS-085 was determined according to previously described methods (Alt, et al., Mol Pharmaceutics. 2014; 11: 2855-63). Briefly, frozen human plasma was purchased from Sigma Aldrich (USA), thawed at 37° C., and 200 μL aliquots were transferred to Eppendorf tubes. A 100 μL aliquot of [^67Cu]Cu-RPS-085 in 10% EtOH/saline was added to each tube, and the mixture was shaken at 300 rpm for 24 h at 37° C. on an Eppendorf ThermoMixer® C (VWR, USA). The experiment was performed in triplicate. The proteins were precipitated by addition of 600 μL acetonitrile. The samples were centrifuged at 13500 rpm for 3 min in an Eppendorf 5424-R Centrifuge. The supernatant was analyzed by analytical reverse phase (radio)HPLC as described above. After 24 h incubation in human plasma, [^67Cu]Cu-RPS-085 was 97.4±0.4% intact. The lone radiochemical impurity was an unidentified fragment of the parent compound.

Data set [3] concerns LNCaP tumors. As to the kind of experiment: Published biodistribution of 177Lu-labeled comparison ligands in the same animal model. It counts as in vivo, mice. The settings on record: over 96 h p.i.; from previously determined values. As to the method: When tumor size reached approximately 200 mm^3, mice (n=4/time point) were administered 3.8±0.1 MBq [^64Cu]Cu-RPS-085 or 0.8±0.005 MBq [^67Cu]Cu-RPS-085 by intravenous injection. The total mass dose received by each animal was approximately 50 ng (31 pmol) and approximately 28 ng (17 pmol) for the [^64Cu]Cu-RPS-085 and [^67Cu]Cu-RPS-085 studies, respectively. The mice were sacrificed at 4 h, 24 h, or 48 h p.i. ([^64Cu]Cu-RPS-085) or 4 h, 24 h, and 96 h ([^67Cu]Cu-RPS-085). A blood sample was collected, and the following tissues were collected and weighed wet using a digital balance: heart, lungs, liver, stomach, small intestine, large intestine, spleen, pancreas, kidneys, muscle, bone, and tumor. The tissues were counted on a Wizard2 Automatic Gamma Counter (Perkin Elmer, USA) against a 1% injected dose standard. The counts were corrected for decay and for activity injected, and tissue uptake was expressed as percent injected dose per gram (% ID/g). Standard error of the mean (SEM) was calculated for each data point. Statistical analyses were performed using an unpaired t test with GraphPad Prism software. A P value of less than 0.05 was considered significant. […] Published values for [177Lu]Lu-RPS-063 are shown for comparison; all concentrations are expressed as percent injected dose per organ.

For data set [4], the system named is LNCaP tumors. The settings on record: over 96 h p.i.; same animal model; previously determined; cited from earlier work.
Data set [5] relates to LNCaP xenograft tumors. As to the kind of experiment: microPET/CT imaging in LNCaP xenograft mouse model. Format: in vivo, male BALB/c athymic nu/nu mice. On the procedure:
(§1) All animal studies were approved by the Institutional Animal Care and Use Committee of Weill Cornell Medicine and were undertaken in accordance with the guidelines set forth by the USPHS Policy on Humane Care and Use of Laboratory Animals. The mice were housed under standard conditions in approved facilities with 12 h light/dark cycles. Food and water was provided ad libitum throughout the course of the studies. Male BALB/c athymic nu/nu mice were purchased from the Jackson Laboratory (USA). Prior to inoculation, LNCaP cells were suspended at a density of 4×10^7 cells/mL in a 1:1 mixture of PBS (VWR, USA):Matrigel (BD Biosciences, USA). Each mouse was injected subcutaneously in the left flank with 0.25 mL of the cell suspension. The animals were monitored twice weekly until palpable tumors emerged.
When tumor size was in the range 200-500 mm^3, mice (n=4) were administered 21.2±0.5 MBq [^64Cu]Cu-RPS-085 by intravenous injection. The total mass dose received by each animal was approximately 300 ng (185 pmol). The mice were imaged under isoflurane anesthesia at 1 h, 3 h, 6 h, 24 h, and 48 h post injection (p.i.) by microPET/CT (Inveon™; Siemens Medical Solutions, USA). Total acquisition time was 30 min. A CT scan was obtained immediately before the PET acquisition for both anatomical co-registration and attenuation correction. Images were reconstructed using the Inveon™ software provided by the vendor.

The test system of data set [6] is LNCaP xenografts. Put plainly: Tissue biodistribution in mice bearing LNCaP xenografts. The settings on record: for activity in kidneys / tumor uptake: i.v., ±SEM. It counts as in vivo, male Balb/C nu/nu mice. On the procedure:
as §1
When tumor size reached approximately 200 mm^3, mice (n=4/time point) were administered 3.8±0.1 MBq [^64Cu]Cu-RPS-085 or 0.8±0.005 MBq [^67Cu]Cu-RPS-085 by intravenous injection. The total mass dose received by each animal was approximately 50 ng (31 pmol) and approximately 28 ng (17 pmol) for the [^64Cu]Cu-RPS-085 and [^67Cu]Cu-RPS-085 studies, respectively. The mice were sacrificed at 4 h, 24 h, or 48 h p.i. ([^64Cu]Cu-RPS-085) or 4 h, 24 h, and 96 h ([^67Cu]Cu-RPS-085). A blood sample was collected, and the following tissues were collected and weighed wet using a digital balance: heart, lungs, liver, stomach, small intestine, large intestine, spleen, pancreas, kidneys, muscle, bone, and tumor. The tissues were counted on a Wizard2 Automatic Gamma Counter (Perkin Elmer, USA) against a 1% injected dose standard. The counts were corrected for decay and for activity injected, and tissue uptake was expressed as percent injected dose per gram (% ID/g). Standard error of the mean (SEM) was calculated for each data point. Statistical analyses were performed using an unpaired t test with GraphPad Prism software. A P value of less than 0.05 was considered significant. The concentration of [67Cu]Cu-RPS-085 found in blood, heart, lungs, liver, small intestine, large intestine, stomach, spleen, pancreas, kidneys, muscle, and bone at 4 h, 24 h, and 96 h, post injection (n=4 per time point) is shown in Table 1 below. Published values for [177Lu]Lu-RPS-063 are shown for comparison; all concentrations are expressed as percent injected dose per organ.

`CC12CNCCNCC(NC(=O)CCCC(=O)NCCCC[C@H](NC(=O)CCOCCOCCOCCn3cc(-c4cccc(NC(=O)NCCCC[C@H](NC(=O)N[C@@H](CCC(=O)O)C(=O)O)C(=O)O)c4)nn3)C(=O)N[C@@H](CCCCNC(=O)Cc3ccc(I)cc3)C(=O)O)(CNCCNC1)C[N@]1CC[N@](C2)[Cu]1` [[^64/67Cu]Cu-RPS-085]: the “time stable in solution at room temperature” value in data set [1] is on record as “more than 24 h”. The “time stable in human plasma” value in data set [2] is “more than 24 h”.
Take [^177Lu]Lu-PSMA-617: the Ãtumor/Ãkidney ratio in data set [3] amounted to 2.1. Besides, in data set [4], the “accumulated activity (Ã) in LNCaP tumors” value is given as 544 (% ID/g)·h and the “accumulated activity (Ã) in kidneys” value was 260 (% ID/g)·h.
On to `CC12CNCCNCC(NC(=O)CCCC(=O)NCCCC[C@H](NC(=O)CCOCCOCCOCCn3cc(-c4cccc(NC(=O)NCCCC[C@H](NC(=O)N[C@@H](CCC(=O)O)C(=O)O)C(=O)O)c4)nn3)C(=O)N[C@@H](CCCCNC(=O)Cc3ccc(I)cc3)C(=O)O)(CNCCNC1)CNCCNC2.[64Cu+2]` [[^64Cu]Cu-RPS-085], for which the “time stable in solution at room temperature” value in data set [1] is given as “more than 24 h”. In data set [5] (microPET/CT), the background tissue activity entry was “low”, the “primary route of excretion” value is reported as “Renal clearance” and the “time by which only tumors could be visualized” value is at most 24 h. Moreover, in data set [5] (mouse, in vivo), the “time by which uptake in tumors exceeded kidneys” value is given as at most 6 h p.i and the “time of greatest activity in the tumor” value worked out at 3 h p.i. In addition, the “activity in the tumor over time” value in data set [5] (over the 48 h imaging window, semi-quantitative, ROIs) is “virtually stable”. For the same molecule, in data set [6] (4 h p.i.), the tumor-to-blood ratio worked out at 230±33, the tumor-to-kidney ratio is 0.9±0.2, the activity in kidneys was 13.7±2.3 % ID/g and the tumor uptake came out at 12.9±1.4 % ID/g. In addition, in data set [6] (24 h p.i.), the tumor-to-kidney ratio turned out to be 3.4±0.7, the activity in kidneys is 2.4±0.4 % ID/g and the tumor uptake came out at 8.3±0.8 % ID/g. For the same molecule, in data set [6] (48 h p.i.), the tumor-to-kidney ratio was 6.1±0.8, the activity in kidneys came out at 1.6±0.1 % ID/g and the tumor uptake is 9.8±1.3 % ID/g. Moreover, the tumor-to-muscle ratio entry in data set [6] (all observed time points) is “greater than 500”. In data set [6] (all time points (4, 24, 48 h p.i.)), the “activity in all other tissues including liver” value was “less than 0.5 % ID/g”. For the same molecule, the tumor-to-blood ratio entry in data set [6] (subsequently (after 4 h p.i.)) was “exceeded 400”.

Values taken from US20230165979A1, “COPPER-CONTAINING THERAGNOSTIC COMPOSITIONS AND METHODS OF USE” (Cornell University, priority 2020, published 2023).
